Legend:
[1] = target: Cyclin-dependent kinase 4 (Homo sapiens) (UniProt P11802)
[2] = target: Cyclin-dependent kinase-like 5 (Homo sapiens) (UniProt O76039)
[3] = target: Casein kinase II subunit alpha (Homo sapiens) (UniProt P68400)
[4] = target: Death-associated protein kinase 1 (Homo sapiens) (UniProt P53355)
[5] = target: Death-associated protein kinase 3 (Homo sapiens) (UniProt O43293)
[6] = target: Epithelial discoidin domain-containing receptor 1 (Homo sapiens) (UniProt Q08345)
[7] = target: Epidermal growth factor receptor (Homo sapiens) (UniProt P00533)
[8] = system: Epidermal growth factor receptor (Homo sapiens), P00533 [L858R,T790M]
[9] = target: T1, G protein-coupled receptor kinase 3 (Homo sapiens) (UniProt P35626)
T1 sequence (whole entry): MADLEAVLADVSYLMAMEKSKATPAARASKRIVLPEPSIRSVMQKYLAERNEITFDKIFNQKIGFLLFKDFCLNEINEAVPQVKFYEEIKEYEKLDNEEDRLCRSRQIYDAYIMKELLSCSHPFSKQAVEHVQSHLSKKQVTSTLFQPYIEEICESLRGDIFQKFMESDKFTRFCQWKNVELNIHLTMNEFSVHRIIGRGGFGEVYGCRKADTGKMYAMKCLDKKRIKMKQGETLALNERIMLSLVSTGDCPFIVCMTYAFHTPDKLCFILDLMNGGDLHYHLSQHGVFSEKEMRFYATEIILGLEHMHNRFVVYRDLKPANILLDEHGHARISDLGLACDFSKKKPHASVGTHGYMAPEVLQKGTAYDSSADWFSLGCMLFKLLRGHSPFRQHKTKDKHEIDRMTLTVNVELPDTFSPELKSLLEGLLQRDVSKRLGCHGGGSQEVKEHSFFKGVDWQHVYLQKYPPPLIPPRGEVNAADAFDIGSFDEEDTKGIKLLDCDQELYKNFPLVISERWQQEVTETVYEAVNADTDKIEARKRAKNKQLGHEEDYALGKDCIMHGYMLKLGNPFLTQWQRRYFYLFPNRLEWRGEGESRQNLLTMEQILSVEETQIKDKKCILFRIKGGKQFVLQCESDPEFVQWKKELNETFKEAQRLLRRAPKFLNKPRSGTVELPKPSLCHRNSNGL

[10] = target: Tyrosine-protein kinase JAK1 (Homo sapiens) (UniProt P23458)
Chain of Tyrosine-protein kinase JAK1 (Homo sapiens) (P23458 whole entry): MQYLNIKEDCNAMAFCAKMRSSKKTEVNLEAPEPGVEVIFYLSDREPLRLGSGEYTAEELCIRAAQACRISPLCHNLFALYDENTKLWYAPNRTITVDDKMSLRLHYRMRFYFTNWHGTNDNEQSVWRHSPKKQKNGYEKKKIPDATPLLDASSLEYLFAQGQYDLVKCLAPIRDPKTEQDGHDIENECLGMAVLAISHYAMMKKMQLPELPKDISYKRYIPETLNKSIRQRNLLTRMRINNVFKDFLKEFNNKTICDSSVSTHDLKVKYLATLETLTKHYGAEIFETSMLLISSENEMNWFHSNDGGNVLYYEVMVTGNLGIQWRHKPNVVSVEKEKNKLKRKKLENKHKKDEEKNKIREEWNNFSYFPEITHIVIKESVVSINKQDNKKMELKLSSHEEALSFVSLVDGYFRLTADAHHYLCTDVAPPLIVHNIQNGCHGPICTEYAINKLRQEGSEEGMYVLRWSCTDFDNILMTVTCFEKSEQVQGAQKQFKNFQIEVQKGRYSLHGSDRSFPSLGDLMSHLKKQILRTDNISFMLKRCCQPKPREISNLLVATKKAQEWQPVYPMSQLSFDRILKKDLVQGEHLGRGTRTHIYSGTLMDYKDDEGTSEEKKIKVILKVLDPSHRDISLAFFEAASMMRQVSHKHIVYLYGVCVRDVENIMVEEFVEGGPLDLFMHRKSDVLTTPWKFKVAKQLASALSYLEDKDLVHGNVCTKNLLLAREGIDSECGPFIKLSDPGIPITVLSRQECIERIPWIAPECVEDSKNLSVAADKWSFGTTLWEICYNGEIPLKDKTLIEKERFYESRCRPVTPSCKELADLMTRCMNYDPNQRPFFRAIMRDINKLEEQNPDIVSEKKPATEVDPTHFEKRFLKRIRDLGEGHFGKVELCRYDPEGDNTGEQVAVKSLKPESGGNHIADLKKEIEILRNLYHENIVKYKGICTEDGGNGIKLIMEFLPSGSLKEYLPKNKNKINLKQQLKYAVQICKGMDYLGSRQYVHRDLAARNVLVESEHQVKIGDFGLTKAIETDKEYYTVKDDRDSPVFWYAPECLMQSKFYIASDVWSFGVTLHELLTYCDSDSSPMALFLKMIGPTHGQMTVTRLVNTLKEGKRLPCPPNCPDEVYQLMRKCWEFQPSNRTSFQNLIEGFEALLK

[11] = target: Serine/threonine-protein kinase STK11 (Homo sapiens) (UniProt Q15831)
[12] = target: Serine/threonine-protein kinase Nek10 (Homo sapiens) (UniProt Q6ZWH5)
[13] = target: cAMP-dependent protein kinase catalytic subunit beta (Homo sapiens) (UniProt P22694)
[14] = system: Proto-oncogene tyrosine-protein kinase receptor Ret (Homo sapiens), P07949 [V804L]
[15] = target: Rho-associated protein kinase 2 (Homo sapiens) (UniProt O75116)
Chain of Rho-associated protein kinase 2 (Homo sapiens) (O75116 whole entry, looked up): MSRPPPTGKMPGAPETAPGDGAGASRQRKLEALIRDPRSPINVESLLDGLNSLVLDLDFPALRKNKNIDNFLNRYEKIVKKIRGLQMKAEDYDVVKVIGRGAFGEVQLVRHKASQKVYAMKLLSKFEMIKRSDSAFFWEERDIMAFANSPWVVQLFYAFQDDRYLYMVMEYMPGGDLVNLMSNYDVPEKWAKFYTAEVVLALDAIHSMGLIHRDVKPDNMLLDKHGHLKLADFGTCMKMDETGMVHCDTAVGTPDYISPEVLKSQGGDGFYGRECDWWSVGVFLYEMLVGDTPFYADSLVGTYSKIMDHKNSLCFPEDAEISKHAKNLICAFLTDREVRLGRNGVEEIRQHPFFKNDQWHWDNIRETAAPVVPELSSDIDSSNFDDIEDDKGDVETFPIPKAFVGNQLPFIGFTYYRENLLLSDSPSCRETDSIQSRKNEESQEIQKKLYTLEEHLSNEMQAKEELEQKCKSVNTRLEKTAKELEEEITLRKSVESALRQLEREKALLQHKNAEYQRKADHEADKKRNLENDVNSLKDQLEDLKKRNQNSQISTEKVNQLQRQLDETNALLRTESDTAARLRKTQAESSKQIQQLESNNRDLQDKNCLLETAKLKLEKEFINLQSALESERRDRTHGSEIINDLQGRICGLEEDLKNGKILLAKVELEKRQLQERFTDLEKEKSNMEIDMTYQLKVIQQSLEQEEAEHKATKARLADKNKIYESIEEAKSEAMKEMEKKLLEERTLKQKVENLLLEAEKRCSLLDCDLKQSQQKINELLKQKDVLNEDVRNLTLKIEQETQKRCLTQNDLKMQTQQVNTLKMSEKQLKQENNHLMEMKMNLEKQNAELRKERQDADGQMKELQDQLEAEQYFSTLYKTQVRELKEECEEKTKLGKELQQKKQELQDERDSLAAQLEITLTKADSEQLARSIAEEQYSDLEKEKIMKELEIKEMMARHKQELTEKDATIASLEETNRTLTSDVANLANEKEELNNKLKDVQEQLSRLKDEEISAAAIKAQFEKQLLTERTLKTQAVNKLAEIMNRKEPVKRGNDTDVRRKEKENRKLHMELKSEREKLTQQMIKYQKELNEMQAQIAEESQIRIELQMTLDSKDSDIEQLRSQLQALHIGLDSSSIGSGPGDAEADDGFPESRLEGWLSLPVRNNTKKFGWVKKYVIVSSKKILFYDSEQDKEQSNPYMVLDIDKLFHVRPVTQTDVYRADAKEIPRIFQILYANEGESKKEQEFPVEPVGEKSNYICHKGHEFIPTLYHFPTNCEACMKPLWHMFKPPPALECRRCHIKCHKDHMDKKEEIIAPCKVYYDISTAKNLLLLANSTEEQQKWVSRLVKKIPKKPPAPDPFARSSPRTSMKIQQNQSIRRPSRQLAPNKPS

[16] = target: Serine/threonine-protein kinase VRK2 (Homo sapiens) (UniProt Q86Y07)
[17] = target: 5-hydroxytryptamine receptor 1E (Homo sapiens) (UniProt P28566); conditions: Compound concentration 10.0 uM
Chain of 5-hydroxytryptamine receptor 1E (Homo sapiens) (P28566 whole entry): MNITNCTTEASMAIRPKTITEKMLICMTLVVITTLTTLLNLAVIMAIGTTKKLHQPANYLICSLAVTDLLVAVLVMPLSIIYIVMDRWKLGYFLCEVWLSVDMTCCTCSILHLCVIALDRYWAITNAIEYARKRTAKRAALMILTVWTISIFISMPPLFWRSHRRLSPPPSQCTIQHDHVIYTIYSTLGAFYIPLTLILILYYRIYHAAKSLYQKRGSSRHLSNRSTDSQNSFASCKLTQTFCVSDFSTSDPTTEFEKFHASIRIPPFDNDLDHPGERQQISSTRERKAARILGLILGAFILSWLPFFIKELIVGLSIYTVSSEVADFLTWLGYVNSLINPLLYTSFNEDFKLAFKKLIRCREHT

[18] = target: 5-hydroxytryptamine receptor 2B (Homo sapiens, UniProt P41595); conditions: Compound concentration 10.0 uM
[19] = target: T2, Alpha-2A adrenergic receptor (Homo sapiens) (UniProt P08913); conditions: Compound concentration 10.0 uM
T2 sequence (whole entry): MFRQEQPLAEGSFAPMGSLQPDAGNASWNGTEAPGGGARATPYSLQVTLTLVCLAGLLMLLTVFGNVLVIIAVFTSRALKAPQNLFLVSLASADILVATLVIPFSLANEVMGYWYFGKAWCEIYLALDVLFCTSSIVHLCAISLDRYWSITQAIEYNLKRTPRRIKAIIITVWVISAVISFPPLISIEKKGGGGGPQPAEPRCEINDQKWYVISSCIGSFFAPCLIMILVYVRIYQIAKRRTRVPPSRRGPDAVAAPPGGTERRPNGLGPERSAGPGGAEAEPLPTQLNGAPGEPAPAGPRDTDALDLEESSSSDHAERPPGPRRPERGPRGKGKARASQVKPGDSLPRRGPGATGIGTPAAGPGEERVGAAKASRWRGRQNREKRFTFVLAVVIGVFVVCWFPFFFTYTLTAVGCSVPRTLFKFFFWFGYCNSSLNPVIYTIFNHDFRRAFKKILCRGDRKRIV

[20] = Compound concentration 100.0 nM
[21] = Compound concentration 1000.0 nM

Chain of Epithelial discoidin domain-containing receptor 1 (Homo sapiens) (Q08345 whole entry, the tested form may be a part): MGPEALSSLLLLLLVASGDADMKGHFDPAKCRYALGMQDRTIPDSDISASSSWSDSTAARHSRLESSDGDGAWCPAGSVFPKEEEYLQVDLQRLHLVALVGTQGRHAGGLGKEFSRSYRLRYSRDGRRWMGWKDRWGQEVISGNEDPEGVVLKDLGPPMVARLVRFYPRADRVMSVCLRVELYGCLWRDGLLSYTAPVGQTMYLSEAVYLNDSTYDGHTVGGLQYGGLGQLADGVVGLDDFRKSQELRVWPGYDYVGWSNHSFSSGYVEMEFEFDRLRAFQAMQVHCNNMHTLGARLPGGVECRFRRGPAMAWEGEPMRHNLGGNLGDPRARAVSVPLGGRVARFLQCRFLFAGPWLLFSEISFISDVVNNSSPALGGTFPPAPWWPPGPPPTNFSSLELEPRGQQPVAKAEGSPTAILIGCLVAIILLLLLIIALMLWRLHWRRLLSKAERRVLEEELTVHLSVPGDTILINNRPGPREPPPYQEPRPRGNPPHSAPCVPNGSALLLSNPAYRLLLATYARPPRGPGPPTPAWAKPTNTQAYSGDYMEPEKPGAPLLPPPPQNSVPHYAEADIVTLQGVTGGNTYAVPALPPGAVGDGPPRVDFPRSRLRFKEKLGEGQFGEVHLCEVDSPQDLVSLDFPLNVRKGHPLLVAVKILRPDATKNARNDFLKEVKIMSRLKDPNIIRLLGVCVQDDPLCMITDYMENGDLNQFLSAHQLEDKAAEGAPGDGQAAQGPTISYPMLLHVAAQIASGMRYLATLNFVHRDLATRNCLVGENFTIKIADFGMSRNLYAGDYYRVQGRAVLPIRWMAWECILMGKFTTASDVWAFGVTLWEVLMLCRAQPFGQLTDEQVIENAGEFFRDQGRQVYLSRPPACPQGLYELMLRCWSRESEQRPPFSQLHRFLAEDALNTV
Chain of Death-associated protein kinase 3 (Homo sapiens) (O43293 whole entry, looked up, the tested form may be a part): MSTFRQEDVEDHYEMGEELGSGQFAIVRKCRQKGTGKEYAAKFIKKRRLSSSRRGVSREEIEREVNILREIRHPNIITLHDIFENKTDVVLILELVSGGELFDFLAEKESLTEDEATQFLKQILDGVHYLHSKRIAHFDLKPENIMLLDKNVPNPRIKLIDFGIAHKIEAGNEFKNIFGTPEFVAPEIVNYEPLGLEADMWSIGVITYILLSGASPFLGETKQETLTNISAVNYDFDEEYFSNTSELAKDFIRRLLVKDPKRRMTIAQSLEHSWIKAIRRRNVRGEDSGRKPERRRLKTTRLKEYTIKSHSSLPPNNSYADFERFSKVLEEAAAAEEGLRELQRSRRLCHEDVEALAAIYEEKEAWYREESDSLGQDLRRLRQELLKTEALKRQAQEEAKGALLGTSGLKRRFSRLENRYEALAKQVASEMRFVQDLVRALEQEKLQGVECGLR
Chain of Cyclin-dependent kinase 4 (Homo sapiens) (P11802 whole entry): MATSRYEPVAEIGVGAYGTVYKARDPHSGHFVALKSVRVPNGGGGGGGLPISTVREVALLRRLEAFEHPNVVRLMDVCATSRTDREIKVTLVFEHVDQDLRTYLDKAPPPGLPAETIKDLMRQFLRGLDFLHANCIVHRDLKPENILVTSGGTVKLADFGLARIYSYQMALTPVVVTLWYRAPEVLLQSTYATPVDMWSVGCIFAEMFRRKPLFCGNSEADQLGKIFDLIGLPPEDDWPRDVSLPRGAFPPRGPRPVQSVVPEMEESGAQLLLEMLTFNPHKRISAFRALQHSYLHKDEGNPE
Chain of Casein kinase II subunit alpha (Homo sapiens) (P68400 whole entry, looked up): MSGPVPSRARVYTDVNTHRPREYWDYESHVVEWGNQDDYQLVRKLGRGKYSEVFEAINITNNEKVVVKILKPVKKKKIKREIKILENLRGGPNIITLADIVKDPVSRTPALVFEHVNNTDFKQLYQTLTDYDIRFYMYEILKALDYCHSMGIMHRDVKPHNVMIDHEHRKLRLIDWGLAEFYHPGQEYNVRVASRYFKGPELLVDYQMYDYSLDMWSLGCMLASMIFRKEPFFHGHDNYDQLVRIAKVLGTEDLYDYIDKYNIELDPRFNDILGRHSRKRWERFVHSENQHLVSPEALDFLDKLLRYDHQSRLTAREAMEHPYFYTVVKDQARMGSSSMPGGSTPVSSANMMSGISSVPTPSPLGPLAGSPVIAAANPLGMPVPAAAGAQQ

C[C@@H]1CN(c2cc(-c3n[nH]c4ccc(OC5(C)CC5)cc34)ncn2)C[C@H](C)O1 [MLi-2]
inactive: residual activity [1, 20] 68% | residual activity [2, 20] 72% | residual activity [3, 20] 66% | residual activity [4, 20] 93% | residual activity [5, 20] 96% | residual activity [6, 20] 91% | residual activity [7, 20] 76% | residual activity [8, 20] 84% | residual activity [9, 20] 91% | residual activity [10, 20] 88% | residual activity [11, 20] 83% | residual activity [12, 20] 69% | residual activity [13, 20] 91% | residual activity [14, 20] 98% | residual activity [15, 20] 89% | residual activity [16, 20] 65% | inhibition [17] -7.52% | inhibition [18] 41.4% | inhibition [19] -2.84%

C[C@@H]1CN(c2cc(-c3nn(C)c4ccc(OC5(C)CC5)cc34)ncn2)C[C@H](C)O1 [MLi-2-NC]
inactive: residual activity [1, 21] 71% | residual activity [2, 21] 64% | residual activity [3, 21] 76% | residual activity [4, 21] 100% | residual activity [5, 21] 89% | residual activity [6, 21] 68% | residual activity [7, 21] 97% | residual activity [8, 21] 99% | residual activity [9, 21] 69% | residual activity [10, 21] 100% | residual activity [11, 21] 94% | residual activity [12, 21] 89% | residual activity [13, 21] 100% | residual activity [14, 21] 72% | residual activity [15, 21] 97% | residual activity [16, 21] 73% | inhibition [17] -0.18% | inhibition [18] 26.7% | inhibition [19] 12.9%

— ChEMBL document CHEMBL4507291 (2021)
